Literature values, collected in patent publication US20140080845A1, “USE OF ALLOPURINOL FOR THE TREATMENT OF HAND FOOT SKIN REACTION” (NOBERA PHARMA, S.L., priority 2009, published 2014).
Read-outs that look alike come from different tables or passages of the source.

How the values were obtained:
[1] = meta-analysis, treated patients

solubility (in chloroform and in ether)	solubility (in dilute solutions of alkali hydroxides)	solubility (in water and alcohol)	Structure (SMILES)	summary incidence of HFSR, grade 3 [1]	summary incidence of HFSR, grades 1-3 [1]
practically insoluble	dissolves	very slightly soluble	Oc1ncnc2[nH]ncc12 [Allopurinol, 1H-pyrazolo[3,4-d] pyrimidin-4-ol]	–	–
–	–	–	CNC(=O)c1cc(Oc2ccc(NC(=O)Nc3ccc(Cl)c(C(F)(F)F)c3)cc2)ccn1 [sorafenib]	8.9%	33.8%
–	–	–	CCN(CC)CCNC(=O)c1c(C)[nH]c(/C=C2\C(=O)Nc3ccc(F)cc32)c1C [sunitinib]	5.5%	18.9%
